# Experimental data reported in PubChem BioAssay (NCI).
#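 Values below derive from 48-hour exposures of cells grown in 96-well plates, with endpoints linearly interpolated between the two concentrations bracketing the appropriate inhibition level. The concentration for 50% growth inhibition is given as GI50. At the TGI there is no net growth.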 Where a SMILES comes first, the peptide text is derived from it. Bridges are numbered along the chain shown (N, C = ends).
# Key:
# Assay in all cases: DTP human tumour cell line panel, 48 h
# SK-OV-3 ovarian = system: SK-OV-3 ovarian
# HCC-2998 colon = system: HCC-2998 colon
# SK-MEL-28 melanoma = system: SK-MEL-28 melanoma
# UACC-257 melanoma = system: UACC-257 melanoma
# CCRF-CEM leukemia = system: CCRF-CEM leukemia
# EKVX NSCLC = system: EKVX NSCLC
# SNB-19 CNS = system: SNB-19 CNS
# KM12 colon = system: KM12 colon
# SR leukemia = system: SR leukemia
# DU-145 prostate = system: DU-145 prostate
smiles,measurement,setting,value
CC(=O)OC(C)(C)C[N+](=O)[O-],TGI,SK-OV-3 ovarian,> 100 µM
same,TGI,HCC-2998 colon,> 100 µM
same,TGI,SK-MEL-28 melanoma,> 100 µM
same,TGI,UACC-257 melanoma,> 100 µM
same,TGI,CCRF-CEM leukemia,> 100 µM
same,TGI,EKVX NSCLC,> 100 µM
same,TGI,SNB-19 CNS,> 100 µM
same,TGI,KM12 colon,> 100 µM
same,TGI,SR leukemia,> 100 µM
CCCCCC1CC=CC(NC(=O)OCc2ccccc2)C1/C=C/CCCC1OCCO1 (centres undefined),TGI,SK-OV-3 ovarian,> 100 µM
same,TGI,HCC-2998 colon,> 100 µM
same,TGI,SK-MEL-28 melanoma,> 100 µM
same,TGI,UACC-257 melanoma,> 100 µM
same,TGI,CCRF-CEM leukemia,> 100 µM
same,TGI,EKVX NSCLC,> 100 µM
same,TGI,SNB-19 CNS,> 100 µM
same,TGI,KM12 colon,> 100 µM
COC(=O)/C=C(C)/C=C/c1c(C)c(C(C)=O)c(C)n1C,TGI,SK-OV-3 ovarian,> 100 µM
same,TGI,HCC-2998 colon,> 100 µM
same,TGI,UACC-257 melanoma,> 100 µM
same,TGI,CCRF-CEM leukemia,> 100 µM
same,TGI,EKVX NSCLC,> 100 µM
same,TGI,SNB-19 CNS,> 100 µM
same,TGI,KM12 colon,> 100 µM
CCc1cc2c(Nc3ccccc3)c3c(nc2s1)CCCC3,TGI,SK-OV-3 ovarian,> 100 µM
same,TGI,HCC-2998 colon,> 100 µM
same,TGI,SK-MEL-28 melanoma,> 100 µM
same,TGI,UACC-257 melanoma,> 100 µM
same,TGI,CCRF-CEM leukemia,> 100 µM
same,TGI,EKVX NSCLC,> 100 µM
same,TGI,SNB-19 CNS,> 100 µM
same,TGI,KM12 colon,> 100 µM
same,TGI,SR leukemia,47.2 µM
Cc1cc2oc(=O)cc(OC/C=C3/CCC(=O)O3)c2cc1C,GI50,SK-OV-3 ovarian,12.8 µM
same,TGI,SK-OV-3 ovarian,26.1 µM
same,GI50,HCC-2998 colon,15.4 µM
same,TGI,HCC-2998 colon,31 µM
same,GI50,SK-MEL-28 melanoma,10.6 µM
same,TGI,SK-MEL-28 melanoma,24 µM
same,GI50,UACC-257 melanoma,12.3 µM
same,TGI,UACC-257 melanoma,26.4 µM
same,GI50,CCRF-CEM leukemia,2330 nM
same,TGI,CCRF-CEM leukemia,7.25 µM
same,GI50,EKVX NSCLC,12.9 µM
same,TGI,EKVX NSCLC,30.5 µM
same,GI50,DU-145 prostate,2670 nM
same,TGI,DU-145 prostate,12.4 µM
same,GI50,SNB-19 CNS,3.04 µM
same,TGI,SNB-19 CNS,19 µM
same,GI50,KM12 colon,3.31 µM
same,TGI,KM12 colon,18 µM
NS(=O)(=O)c1ccc(-n2nc(-c3ccccc3)cc2-c2cc(O)ccc2O)cc1,GI50,SK-MEL-28 melanoma,94.3 µM
same,TGI,SK-MEL-28 melanoma,> 100 µM
same,GI50,UACC-257 melanoma,34.4 µM
same,TGI,UACC-257 melanoma,> 100 µM
same,GI50,CCRF-CEM leukemia,> 100000 nM
same,TGI,CCRF-CEM leukemia,> 100 µM
same,GI50,EKVX NSCLC,> 100 µM
same,TGI,EKVX NSCLC,> 100 µM
same,GI50,SNB-19 CNS,> 100 µM
same,TGI,SNB-19 CNS,> 100 µM
same,GI50,KM12 colon,38.5 µM
same,TGI,KM12 colon,> 100 µM
CCOC1Oc2ccccc2C(=O)/C1=C\Nc1ccc(C(=O)O)c(O)c1 (centres undefined),GI50,SK-OV-3 ovarian,21.7 µM
same,TGI,SK-OV-3 ovarian,67.6 µM
same,GI50,SK-MEL-28 melanoma,23.9 µM
same,TGI,SK-MEL-28 melanoma,65.9 µM
same,GI50,UACC-257 melanoma,19.4 µM
same,TGI,UACC-257 melanoma,44.6 µM
same,GI50,EKVX NSCLC,36.7 µM
same,TGI,EKVX NSCLC,96.1 µM
same,GI50,DU-145 prostate,34100 nM
same,TGI,DU-145 prostate,> 100 µM
same,GI50,SNB-19 CNS,28.6 µM
same,TGI,SNB-19 CNS,94.4 µM
same,GI50,KM12 colon,26.3 µM
same,TGI,KM12 colon,65 µM
same,GI50,SR leukemia,39.4 µM
same,TGI,SR leukemia,> 100 µM
CCCCNP1(NCCCC)=NP(NCCCC)(NCCCC)=NP(NCCCC)(NCCCC)=NP(NCCCC)(NCCCC)=N1,GI50,SK-OV-3 ovarian,1.07 µM
same,TGI,SK-OV-3 ovarian,9.75 µM
same,GI50,HCC-2998 colon,0.304 µM
same,TGI,HCC-2998 colon,3.7 µM
same,GI50,SK-MEL-28 melanoma,2.64 µM
same,TGI,SK-MEL-28 melanoma,8.68 µM
same,GI50,UACC-257 melanoma,1.23 µM
same,TGI,UACC-257 melanoma,5.55 µM
same,GI50,CCRF-CEM leukemia,313 nM
same,TGI,CCRF-CEM leukemia,12.3 µM
same,GI50,EKVX NSCLC,0.25 µM
same,TGI,EKVX NSCLC,6.17 µM
same,GI50,DU-145 prostate,895 nM
same,TGI,DU-145 prostate,15.2 µM
same,GI50,SNB-19 CNS,1.12 µM
same,TGI,SNB-19 CNS,27.9 µM
same,GI50,KM12 colon,0.355 µM
same,TGI,KM12 colon,4.27 µM
CCN(CC)CCCNc1nccc2c(C)c3[nH]c4ccncc4c(=O)c3cc12,TGI,SK-OV-3 ovarian,16 µM
same,TGI,HCC-2998 colon,13.4 µM
same,TGI,SK-MEL-28 melanoma,13.4 µM
same,TGI,UACC-257 melanoma,31.7 µM
same,TGI,CCRF-CEM leukemia,8.44 µM
same,TGI,EKVX NSCLC,35.7 µM
same,TGI,SNB-19 CNS,28.4 µM
same,TGI,KM12 colon,15.5 µM
same,TGI,SR leukemia,2.23 µM
CCC(C)C1NC(=O)C(CC(C)C)NC(=O)C(C(C)C)NC(=O)C2CSSCC(NC1=O)C(=O)N2 (centres undefined) (cyclo(CCVLI); disulfide 1-2; configuration not given here),TGI,HCC-2998 colon,0.216 µM
same,TGI,SK-MEL-28 melanoma,0.269 µM
same,TGI,UACC-257 melanoma,0.279 µM
same,TGI,EKVX NSCLC,0.452 µM
same,TGI,DU-145 prostate,0.301 µM
same,TGI,SNB-19 CNS,0.344 µM
same,TGI,KM12 colon,0.223 µM
Nc1nc(N)c(CCCCc2ccccc2)c(/C=C/c2ccc([N+](=O)[O-])cc2)n1,TGI,SK-OV-3 ovarian,39.1 µM
same,TGI,HCC-2998 colon,9.04 µM
same,TGI,SK-MEL-28 melanoma,12.8 µM
same,TGI,UACC-257 melanoma,22.2 µM
same,TGI,CCRF-CEM leukemia,6.01 µM
same,TGI,EKVX NSCLC,> 100 µM
same,TGI,SNB-19 CNS,64.7 µM
same,TGI,KM12 colon,10.8 µM
same,TGI,SR leukemia,4.85 µM
O=c1oc2c(O)c(O)cc3c(=O)oc4c(O)c(O)cc1c4c23,TGI,SK-OV-3 ovarian,> 100 µM
same,GI50,HCC-2998 colon,> 100 µM
same,TGI,HCC-2998 colon,> 100 µM
same,GI50,SK-MEL-28 melanoma,> 100 µM
same,TGI,SK-MEL-28 melanoma,> 100 µM
same,GI50,UACC-257 melanoma,> 100 µM
same,TGI,UACC-257 melanoma,> 100 µM
same,GI50,CCRF-CEM leukemia,> 100000 nM
same,TGI,CCRF-CEM leukemia,> 100 µM
same,TGI,EKVX NSCLC,> 100 µM
same,TGI,SNB-19 CNS,57.3 µM
same,GI50,KM12 colon,> 100 µM
same,TGI,KM12 colon,> 100 µM
same,TGI,SR leukemia,> 100 µM
C=C(C)C1CC=C(C)C(O)([C@@]2(O)C[C@H](C(=C)C)CC=C2C)C1 (some centres undefined),TGI,SK-OV-3 ovarian,64.1 µM
same,TGI,HCC-2998 colon,35.7 µM
same,TGI,SK-MEL-28 melanoma,95.9 µM
same,TGI,UACC-257 melanoma,42.8 µM
same,TGI,CCRF-CEM leukemia,46.3 µM
same,TGI,SNB-19 CNS,> 100 µM
same,TGI,KM12 colon,43.4 µM
same,TGI,SR leukemia,58.1 µM
C=C1C(=O)O[C@H]2[C@H]1CC/C(CNC(=O)C(C)c1ccc(CC(C)C)cc1)=C\CC[C@@]1(C)O[C@@H]21 (some centres undefined),GI50,SK-OV-3 ovarian,12.3 µM
same,TGI,SK-OV-3 ovarian,24.8 µM
same,GI50,HCC-2998 colon,1.83 µM
same,TGI,HCC-2998 colon,3.38 µM
same,GI50,SK-MEL-28 melanoma,1.67 µM
same,TGI,SK-MEL-28 melanoma,3.32 µM
same,GI50,UACC-257 melanoma,1.56 µM
same,TGI,UACC-257 melanoma,3.12 µM
same,GI50,CCRF-CEM leukemia,551 nM
same,TGI,CCRF-CEM leukemia,7.49 µM
same,GI50,EKVX NSCLC,1.67 µM
same,TGI,EKVX NSCLC,3.22 µM
same,GI50,DU-145 prostate,1490 nM
same,TGI,DU-145 prostate,2.85 µM
same,GI50,SNB-19 CNS,2.15 µM
same,TGI,SNB-19 CNS,5.67 µM
same,GI50,KM12 colon,2.38 µM
same,TGI,KM12 colon,5.65 µM
CC[C@@]1(O)C(=O)OCc2c1cc1n(c2=O)Cc2cc3cccc(N)c3nc2-1,GI50,SK-OV-3 ovarian,5.13 µM
same,TGI,SK-OV-3 ovarian,29.7 µM
same,GI50,HCC-2998 colon,16.6 µM
same,TGI,HCC-2998 colon,48.1 µM
same,GI50,SK-MEL-28 melanoma,> 100 µM
same,TGI,SK-MEL-28 melanoma,> 100 µM
same,GI50,UACC-257 melanoma,> 100 µM
same,TGI,UACC-257 melanoma,> 100 µM
same,GI50,CCRF-CEM leukemia,1070 nM
same,TGI,CCRF-CEM leukemia,> 100 µM
same,GI50,EKVX NSCLC,33 µM
same,TGI,EKVX NSCLC,> 100 µM
same,GI50,SNB-19 CNS,5.77 µM
same,TGI,SNB-19 CNS,50.3 µM
same,GI50,KM12 colon,> 100 µM
same,TGI,KM12 colon,> 100 µM
same,GI50,SR leukemia,0.478 µM
CCC1=CCC(P(=O)(c2ccccc2)c2ccccc2)CC1C (centres undefined),TGI,SK-OV-3 ovarian,> 100 µM
same,TGI,SK-MEL-28 melanoma,> 100 µM
same,TGI,UACC-257 melanoma,> 100 µM
same,TGI,CCRF-CEM leukemia,> 100 µM
same,TGI,EKVX NSCLC,> 100 µM
same,TGI,SNB-19 CNS,> 100 µM
same,TGI,KM12 colon,> 100 µM
CC1(C)C2=CCCC(=O)[C@@]2(C)CC[C@@H]1O,TGI,SK-OV-3 ovarian,> 100 µM
same,TGI,HCC-2998 colon,> 100 µM
same,TGI,SK-MEL-28 melanoma,> 100 µM
same,TGI,UACC-257 melanoma,> 100 µM
same,TGI,CCRF-CEM leukemia,> 100 µM
same,TGI,EKVX NSCLC,> 100 µM
same,TGI,SNB-19 CNS,> 100 µM
same,TGI,KM12 colon,> 100 µM
same,TGI,SR leukemia,> 100 µM
O=C(CO)CC(=O)C(=O)Nc1cccc(C(F)(F)F)c1,TGI,SK-OV-3 ovarian,> 100 µM
same,TGI,HCC-2998 colon,> 100 µM
same,TGI,SK-MEL-28 melanoma,> 100 µM
same,TGI,UACC-257 melanoma,> 100 µM
same,TGI,SNB-19 CNS,> 100 µM
same,TGI,KM12 colon,> 100 µM
same,TGI,SR leukemia,> 100 µM
COc1ccc(C(=O)Nc2ccn(CCOC(=O)c3ccc(OC)cc3)c(=O)n2)cc1,TGI,SK-OV-3 ovarian,> 100 µM
same,TGI,SK-MEL-28 melanoma,> 100 µM
same,TGI,UACC-257 melanoma,> 100 µM
same,TGI,CCRF-CEM leukemia,> 100 µM
same,TGI,EKVX NSCLC,> 100 µM
same,TGI,KM12 colon,> 100 µM
same,TGI,SR leukemia,> 100 µM
